{
  "source": "patent US20060264419A1",
  "about": "(priority 2003, published 2006)",
  "data": [
    {"biological_target": "5-HT2A receptors (Rattus norvegicus, UniProt P14842)", "sequence (P14842 whole entry)": "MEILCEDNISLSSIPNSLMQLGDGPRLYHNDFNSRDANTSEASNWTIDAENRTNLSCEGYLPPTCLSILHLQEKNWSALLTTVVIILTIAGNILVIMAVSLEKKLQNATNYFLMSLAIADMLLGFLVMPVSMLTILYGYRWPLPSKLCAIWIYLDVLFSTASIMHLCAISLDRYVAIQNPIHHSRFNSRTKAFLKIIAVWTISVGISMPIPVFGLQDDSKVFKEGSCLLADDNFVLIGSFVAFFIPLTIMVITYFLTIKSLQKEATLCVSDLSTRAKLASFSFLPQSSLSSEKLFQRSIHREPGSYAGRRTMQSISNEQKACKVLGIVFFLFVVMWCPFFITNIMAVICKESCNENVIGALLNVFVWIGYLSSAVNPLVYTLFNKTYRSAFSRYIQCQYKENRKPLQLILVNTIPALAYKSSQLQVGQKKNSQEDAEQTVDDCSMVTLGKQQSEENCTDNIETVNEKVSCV", "experiment": "in-vitro affinity to 5-HT2A receptors, displacement of [3H]ketanserine (Example A1)", "assay_type": "binding", "conditions": "target not given; description names affinity to 5-HT2A receptors; read-out: IC50", "source_text": "The 5-HT2A receptors are exposed both to [^3H]ketanserine (a substance which is known for its affinity to the receptor) and also to the test compound. The decrease in the affinity of [^3H]ketanserine to the receptor is an indication of the affinity of the test substance to the 5-HT2A receptor.", "units": {"IC50": "nM"}, "values": [
      {"smiles": "CC1CN(Cc2cnn(-c3ccc(-c4ccccc4)cc3)c2-c2ccccc2F)CC(C)N1", "note": "(stereo not drawn) [(95), 1-[1-Biphenyl-4-yl-5-(2-fluorophenyl)-1H-pyrazol-4-ylmethyl]-3,5-dimethylpiperazine]", "IC50": 100},
      {"smiles": "CN1CCN(Cc2cnn(-c3ccc(-c4ccccc4F)cc3)c2-c2ccccc2)CC1", "note": "[(96), 1-[1-(2′-Fluorobiphenyl-4-yl)-5-phenyl-1H-pyrazol-4-ylmethyl]-4-methylpiperazine]", "IC50": 820},
      {"smiles": "CN1CCN(Cc2cnn(-c3ccc(-c4ccc(F)cc4)cc3)c2-c2ccccc2)CC1", "note": "[(97), 1-[1-(4′-Fluorobiphenyl-4-yl)-5-phenyl-1H-pyrazol-4-ylmethyl]-4-methylpiperazine]", "IC50": 13},
      {"smiles": "CN1CCN(Cc2cnn(-c3ccc(-c4ccsc4)cc3)c2-c2ccccc2)CC1", "note": "[(98), 1-Methyl-4-[5-phenyl-1-(4-thiophen-3-ylphenyl)-1H-pyrazol-4-ylmethyl]piperazine]", "IC50": 31},
      {"smiles": "CN1CCN(Cc2cnn(-c3ccc(-c4ccccc4F)cc3)c2-c2ccc(F)cc2)CC1", "note": "[(99), 1-[1-(2′-Fluorobiphenyl-4-yl)-5-(4-fluorophenyl)-1H-pyrazol-4-ylmethyl]-4-methylpiperazine]", "IC50": 210},
      {"smiles": "CN1CCN(Cc2cnn(-c3ccc(-c4ccc(F)cc4)cc3)c2-c2ccc(F)cc2)CC1", "note": "[(100), 1-[1-(4′-Fluorobiphenyl-4-yl)-5-(4-fluorophenyl)-1H-pyrazol-4-ylmethyl]-4-methylpiperazine]", "IC50": 25},
      {"smiles": "CN1CCN(Cc2cnn(-c3ccc(-c4cc(F)ccc4F)cc3)c2-c2ccc(F)cc2)CC1", "note": "[(101), 1-[1-(2′,5′-Difluorobiphenyl-4-yl)-5-(4-fluorophenyl)-1H-pyrazol-4-ylmethyl]-4-methylpiperazine]", "IC50": 240},
      {"smiles": "CN1CCN(Cc2cnn(-c3ccc(-c4ccsc4)cc3)c2-c2ccc(F)cc2)CC1", "note": "[(102), 1-[5-(4-Fluorophenyl)-1-(4-thiophen-3-ylphenyl)-1H-pyrazol-4-ylmethyl]-4-methylpiperazine]", "IC50": 1100},
      {"smiles": "CN1CCN(Cc2cnn(-c3ccc(-c4ccccc4F)cc3)c2-c2ccco2)CC1", "note": "[(103), 1-[1-(2′-Fluorobiphenyl-4-yl)-5-furan-2-yl-1H-pyrazol-4-ylmethyl]-4-methylpiperazine]", "IC50": 25},
      {"smiles": "COc1ccccc1-c1c(CN2CCN(C)CC2)cnn1-c1ccc(-c2ccccc2F)cc1", "note": "[(104), 1-[1-(2′-Fluorobiphenyl-4-yl)-5-(2-methoxyphenyl)-1H-pyrazol-4-ylmethyl]-4-methylpiperazine]", "IC50": 52},
      {"smiles": "COc1ccccc1-c1c(CN2CCN(C)CC2)cnn1-c1ccc(-c2ccsc2)cc1", "note": "[(105), 1-[5-(2-Methoxyphenyl)-1-(4-thiophen-3-ylphenyl)-1H-pyrazol-4-ylmethyl]-4-methylpiperazine]", "IC50": 460},
      {"smiles": "CN1CCN(Cc2cnn(-c3ccc(-n4cccc4)cc3)c2-c2ccccc2F)CC1", "note": "[(106), 1-[5-(2-Fluorophenyl)-1-(4-pyrrol-1-ylphenyl)-1H-pyrazol-4-ylmethyl]-4-methylpiperazine]", "IC50": 17},
      {"smiles": "Fc1ccccc1-c1c(CNC2CN3CCC2CC3)cnn1-c1ccc(-c2ccccc2)cc1", "note": "(stereo not drawn) [(107), (1-Azabicyclo[2.2.2]oct-3-yl)-[1-biphenyl-4-yl-5-(2-fluorophenyl)-1H-pyrazol-4-ylmethyl]amine]", "IC50": 140},
      {"smiles": "O=S1(=O)CCN(Cc2cnn(-c3ccc(-c4ccccc4)cc3)c2-c2ccccc2F)CC1", "note": "[(108), 4-[1-Biphenyl-4-yl-5-(2-fluorophenyl)-1H-pyrazol-4-ylmethyl]-thiomorpholine 1,1-dioxide]", "IC50": 43},
      {"smiles": "CN1CC2CC1CN2Cc1cnn(-c2ccc(-c3ccccc3)cc2)c1-c1ccccc1F", "note": "(stereo not drawn) [(109), 2-[1-Biphenyl-4-yl-5-(2-fluorophenyl)-1H-pyrazol-4-ylmethyl]-5-methyl-2,5-diazabicyclo[2.2.1]heptane]", "IC50": 94},
      {"smiles": "CCOC(=O)N1CCC(N(C)Cc2cnn(-c3ccc(-c4ccccc4)cc3)c2-c2ccccc2F)CC1", "note": "[(110), Ethyl 4-{[1-biphenyl-4-yl-5-(2-fluorophenyl)-1H-pyrazol-4-ylmethyl]methylamino}piperidine-1-carboxylate]", "IC50": 170},
      {"smiles": "NC(=O)CN1CCN(Cc2cnn(-c3ccc(-c4ccccc4)cc3)c2-c2ccccc2F)CC1", "note": "[(111), 2-{4-[1-Biphenyl-4-yl-5-(2-fluorophenyl)-1H-pyrazol-4-ylmethyl]piperazin-1-yl}acetamide]", "IC50": 360},
      {"smiles": "COC(=O)CCNCc1cnn(-c2ccc(-c3ccccc3)cc2)c1-c1ccccc1F", "note": "[(112), Methyl 3-{[1-biphenyl-4-yl-5-(2-fluorophenyl)-1H-pyrazol-4-ylmethyl]amino}propionate]", "IC50": 210},
      {"smiles": "CN1CCN(Cc2cnn(-c3ccc(-c4ccccc4)cc3)c2-c2cccnc2)CC1", "note": "[(113), 1-(1-Biphenyl-4-yl-5-pyridin-3-yl-1H-pyrazol-4-ylmethyl)-4-methylpiperazine]", "IC50": 290},
      {"smiles": "CC(C)c1ccc(-n2ncc(CN3CCN(C)CC3)c2-c2ccccc2F)cc1", "note": "[(114), 1-[5-(2-Fluorophenyl)-1-(4-isopropylphenyl)-1H-pyrazol-4-ylmethyl]-4-methylpiperazine]", "IC50": 120},
      {"smiles": "CN1CCN(Cc2cnn(-c3ccc(OC(F)(F)F)cc3)c2-c2ccccc2F)CC1", "note": "[(115), 1-[5-(2-Fluorophenyl)-1-(4-trifluoromethoxyphenyl)-1H-pyrazol-4-ylmethyl]-4-methylpiperazine]", "IC50": 270},
      {"smiles": "CN1CCN(Cc2cnn(-c3ccc(-c4ccc(F)cc4)nc3)c2-c2ccccc2F)CC1", "note": "[(116), 1-{5-(2-Fluorophenyl)-1-[6-(4-fluorophenyl)pyridin-3-yl]-1H-pyrazol-4-ylmethyl}-4-methylpiperazine]", "IC50": 120},
      {"smiles": "CCOC(=O)CNCc1cnn(-c2ccc(-c3ccccc3)cc2)c1-c1cccnc1", "note": "[(117), Ethyl [(1-biphenyl-4-yl-5-pyridin-3-yl-1H-pyrazol-4-ylmethyl)-amino]acetate]", "IC50": 940},
      {"smiles": "NC(=O)CNCc1cnn(-c2ccc(-c3ccccc3)cc2)c1-c1ccccc1F", "note": "[(118), 2-{[1-Biphenyl-4-yl-5-(2-fluorophenyl)-1H-pyrazol-4-ylmethyl]-amino}acetamide]", "IC50": 730},
      {"smiles": "OCc1cnn(-c2ccc(-c3ccc(F)cc3)nc2)c1-c1ccccc1F", "note": "[(119), {5-(2-Fluorophenyl)-1-[6-(4-fluorophenyl)pyridin-3-yl]-1H-pyrazol-4-yl}methanol]", "IC50": 300},
      {"smiles": "CN1CCN(Cc2cnn(-c3ccc(-c4cccnc4)cc3)c2-c2ccccc2F)CC1", "note": "[(120), 1-[5-(2-Fluorophenyl)-1-(4-pyridin-3-ylphenyl)-1H-pyrazol-4-ylmethyl]-4-methylpiperazine]", "IC50": 170},
      {"smiles": "CN1CCN(Cc2cnn(-c3ccc(-c4ccncc4)cc3)c2-c2ccccc2F)CC1", "note": "[(121), 1-[5-(2-Fluorophenyl)-1-(4-pyridin-4-ylphenyl)-1H-pyrazol-4-ylmethyl]-4-methylpiperazine]", "IC50": 77},
      {"smiles": "Fc1ccc(F)c(-c2ccc(-n3ncc(CNCC4CCCO4)c3-c3ccccc3F)cc2)c1", "note": "(stereo not drawn) [(122), [1-(2′,5′-Difluorobiphenyl-4-yl)-5-(2-fluorophenyl)-1H-pyrazol-4-ylmethyl](tetrahydrofuran-2-ylmethyl)amine]", "IC50": 370},
      {"smiles": "CS(=O)(=O)N1CCN(Cc2cnn(-c3ccc(-c4ccccc4)cc3)c2-c2ccccc2F)CC1", "note": "[(123), 1-[1-Biphenyl-4-yl-5-(2-fluorophenyl)-1H-pyrazol-4-ylmethyl]-4-methanesulfonylpiperazine]", "IC50": 830},
      {"smiles": "N#CCNCc1cnn(-c2ccc(-c3ccccc3)cc2)c1-c1ccccc1F", "note": "[(124), {[1-Biphenyl-4-yl-5-(2-fluorophenyl)-1H-pyrazol-4-ylmethyl]-amino}acetonitrile]", "IC50": 280},
      {"smiles": "O=C(Nc1ccccc1)N1CCN(Cc2cnn(-c3ccc(-c4ccccc4)cc3)c2-c2ccccc2F)CC1", "note": "[(126), N-Phenyl-4-[1-biphenyl-4-yl-5-(2-fluorophenyl)-1H-pyrazol-4-ylmethyl]piperazine-1-carboxamide]", "IC50": 790},
      {"smiles": "CN(C)CCN(C)Cc1cnn(-c2ccc(-c3ccccc3)nc2)c1-c1ccccc1F", "note": "[(127), N-[5-(2-Fluorophenyl)-1-(6-phenylpyridin-3-yl)-1H-pyrazol-4-ylmethyl]-N,N′,N′-trimethylethane-1,2-diamine]", "IC50": 440},
      {"smiles": "CN(C)C(=O)CNCc1cnn(-c2ccc(-c3ccccc3)cc2)c1-c1ccccc1F", "note": "[(128), 2-{[1-Biphenyl-4-yl-5-(2-fluorophenyl)-1H-pyrazol-4-ylmethyl]-amino}-N,N-dimethylacetamide]", "IC50": 200},
      {"smiles": "O=C(CNCc1cnn(-c2ccc(-c3ccccc3)cc2)c1-c1ccccc1F)Nc1ccc([N+](=O)[O-])cc1", "note": "[(129), 2-{[1-Biphenyl-4-yl-5-(2-fluorophenyl)-1H-pyrazol-4-ylmethyl]-amino}-N-(4-nitrophenyl)acetamide]", "IC50": 100},
      {"smiles": "CNC(=O)CNCc1cnn(-c2ccc(-c3ccccc3)cc2)c1-c1ccccc1F", "note": "[(130), 2-{[1-Biphenyl-4-yl-5-(2-fluorophenyl)-1H-pyrazol-4-ylmethyl]-amino}-N-methylacetamide]", "IC50": 600},
      {"smiles": "O=C1NOCC1NCc1cnn(-c2ccc(-c3ccccc3)cc2)c1-c1ccccc1F", "note": "(stereo not drawn) [(131), 4-{[1-Biphenyl-4-yl-5-(2-fluorophenyl)-1H-pyrazol-4-ylmethyl]-amino}isoxazolidin-3-one]", "IC50": 6000},
      {"smiles": "CN(CC(N)=O)Cc1cnn(-c2ccc(-c3ccccc3)cc2)c1-c1ccccc1F", "note": "[(132), 2-{[1-Biphenyl-4-yl-5-(2-fluorophenyl)-1H-pyrazol-4-ylmethyl]-methylamino}acetamide]", "IC50": 920},
      {"smiles": "Fc1ccccc1-c1c(CNCc2nc3ccccc3[nH]2)cnn1-c1ccc(-c2ccccc2)cc1", "note": "[(133), (1H-Benzoimidazol-2-ylmethyl)-[1-biphenyl-4-yl-5-(2-fluorophenyl)-1H-pyrazol-4-ylmethyl]amine]", "IC50": 76},
      {"smiles": "COCCN(C)Cc1cnn(-c2ccc(-c3ccccc3)nc2)c1-c1ccccc1F", "note": "[(134), [5-(2-Fluorophenyl)-1-(6-phenylpyridin-3-yl)-1H-pyrazol-4-ylmethyl]-(2-methoxyethyl)methylamine]", "IC50": 300}
    ]}
  ]
}
